Data reported in US10323018B2 (Millennium Pharmaceuticals, Inc., priority 2015, dated 2019).

Legend:
hNAMPT protein = hNAMPT protein (Homo sapiens (Human), UniProt P43490); assay: NAMPT enzyme assay (TR-FRET/HTRF with BodiPY ligand); assay type: binding; conditions: for inhibition at 1 µM: NAMPT inhibition at compound concentration 1 μM, read-out: Percent Inhibition; for IC50: NAMPT inhibition, IC50 range class
From the text: As discussed above, the invention provides compounds that are useful as inhibitors of the enzyme NAMPT. The NAMPT inhibition of a compound of the invention can be measured using a variety of methods known in the art. For example, the ability of a compound of the invention to inhibit NAMPT enzyme activity can be measured using a homogeneous time resolved fluorescence (HTRF) assay using hNAMPT protein and anti 6His-Tb in buffer treated with a compound of the invention (or control e.g., DMSO) and BodiPY ligand. The TR-FRET signal can be measured using a high throughput microplate reader (e.g., Pherastar). Excitation can be carried out at 320 nm. The percent inhibition value at a single concentration of compound of the invention can be calculated relative to a control treated sample. A concentration response curve can be generated for each compound of the invention and the curve fitted to generate an IC50 value. […] To measure the inhibition of NAMPT activity hNAMPT protein stock and anti 6His-Tb (Cisbio; Cat. No. […]TLB) is diluted to 3× final concentration with assay buffer (50 mM Tris-HCl (pH 7.5), 1 mM DTT, 100 mM NaCl, 10 mM MgCl2, 0.005% Tween 20). To this solution is added a test compound or vehicle control (DMSO) and BodiPY ligand (structure below). The plate is shaken for 1-2 min sealed and incubated for 1 h at rt in the dark. The TR-FRET signal is measured using BMG Pherastar (Lanthascreen protocol on BMG Pherastar). Excitation was carried out at 320 nm, and the ratio of emission of BodiPY (520 nm) to terbium (486 nm) was determined. Concentration response curves are generated by calculating the excitation increase in test compound-treated samples relative to DMSO-treated controls. For the assay method described above, test compound percent inhibition values at a single concentration are calculated relative to control (DMSO) treated samples. Compound concentration response curves are fitted to generate IC50 values from those curves. One skilled in the art will appreciate that these values generated either as percentage inhibition at a single concentration or IC50 values are subject to experimental variation.

PC3 cells = assay: PC3 growth inhibition (Cell-titer glo, 72 hours); assay type: cell-based; conditions: Homo sapiens, PC-3, 72 h, read-out: Percent Viability, PC3 cells, compound concentration 1.667 μM, 72 hours
Procedure: The invention also provides compounds that inhibit cell growth. The ability of a compound of the invention to inhibit the growth of cells can be measured using a variety of methods known in the art. For example, the ability of a compound of the invention to inhibit the growth of PC3 cells can be measured. PC3 cells can be plated and incubated overnight under CO2. For each measurement, a compound of the invention (or vehicle e.g., DMSO) can be diluted with AIM serum free medium and added to the cell plate. The cell plate can then be incubated for 72 h under CO2. Cell-titer glo solution can be added and the plates can be incubated protected from light and the amount of luminescences can be measured. Concentration response curves can be generated by calculating the luminescence increase in test compound treated samples relative to DMSO-treated controls. Percentage remaining viability values at a single concentration can be measured. Growth inhibition (GI50) or cell viability (LD50) values can be determined from thoses curves. In one embodiment, compounds of the invention have a percent viability in PC3 line @ 1.667 uM of <1%. In one embodiment, compounds of the invention have a percent viability in PC3 line @ 1.667 uM of <2%. In one embodiment, compounds of the invention have a percent viability in PC3 line @ 1.667 uM of <3%. In one embodiment, compounds of the invention have a percent viability in PC3 line @ 1.667 uM of <4%. In one embodiment, compounds of the invention have a percent viability in PC3 line @ 1.667 uM of <5%. In one embodiment, compounds of the invention have a percent viability in PC3 line @ 1.667 uM of <10%. In one embodiment, compounds of the invention have a percent viability in PC3 line @ 1.667 uM of <50%.
To measure PC3 growth inhibition, PC3 cells that were maintained in RPMI1640 growth medium (Life Technologies; Cat. No. 11875) at 37° C. under 5% CO2 are trypsinized and diluted at a density of 8×10^4 cells/ml, 25 ul per well of cells and plated in 384-well black tissue culture plate. The cells are incubated overnight at 37° C. under 5% CO2. For each measurement, a test compound or vehicle DMSO control is diluted with AIM serum free medium and added to the cell plate. The cell plate is incubated for 72 hours at 37° C. under 5% CO2. 25 μl Cell-titer glo solution (Promega; Cat. No. G8462) is added and the cell plates are incubated for 10 minutes protected from light. The luminescence is measured. Concentration response curves are generated by calculating the luminescence increase in test compound-treated samples relative to DMSO-treated controls. Percentage remaining viability values at a single concentration, growth inhibition (GI50) or cell viability (LD50) values are determined from those curves. One skilled in the art will appreciate that these values are subject to experimental variation.

hNAMPT protein, sequence (P43490 whole entry): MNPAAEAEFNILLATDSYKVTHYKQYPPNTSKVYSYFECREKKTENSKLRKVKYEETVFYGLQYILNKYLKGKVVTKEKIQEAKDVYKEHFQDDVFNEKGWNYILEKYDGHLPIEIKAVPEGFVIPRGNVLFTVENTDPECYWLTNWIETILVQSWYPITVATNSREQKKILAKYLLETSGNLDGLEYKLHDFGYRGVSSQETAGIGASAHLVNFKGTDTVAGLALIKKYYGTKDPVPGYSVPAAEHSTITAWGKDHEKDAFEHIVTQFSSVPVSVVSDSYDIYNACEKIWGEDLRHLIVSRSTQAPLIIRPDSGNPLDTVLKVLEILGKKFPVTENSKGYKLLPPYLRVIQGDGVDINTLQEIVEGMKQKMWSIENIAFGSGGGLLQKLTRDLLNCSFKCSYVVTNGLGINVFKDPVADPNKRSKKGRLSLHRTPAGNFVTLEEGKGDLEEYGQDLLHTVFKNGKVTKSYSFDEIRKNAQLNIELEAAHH

SMILES	inhibition at 1 µM (hNAMPT protein)	IC50 (hNAMPT protein)	viability at 1.667 µM (PC3 cells)
CCOc1cc(-c2ccc(F)cc2)nc2cc(C(=O)NCCCc3n[nH]nc3C)ccc12 [Compound I-133, 4-ethoxy-2-(4-fluorophenyl)-N-[3-(5-methyl-2H-1,2,3-triazol-4-yl)propyl]quinoline-7-carboxamide]	> 99%	< 0.01 µM	2%
COCCOc1cc(-c2ccc(F)cc2)nc2cc(C(=O)NCCCc3cn[nH]n3)ccc12 [Compound I-109, 2-(4-fluorophenyl)-4-(2-methoxyethoxy)-N-[3-(2H-1,2,3-triazol-4-yl)propyl]quinoline-7-carboxamide]	100%	0.01 to 0.05 µM	2%
CCOc1cc(-c2ccc(F)cc2)nc2cc(C(=O)NCCCc3ncc[nH]3)ccc12 [Compound I-15, 4-ethoxy-2-(4-fluorophenyl)-N-[3-(1H-imidazol-2-yl)propyl]quinoline-7-carboxamide]	> 99%	< 0.01 µM	2%
CCOc1cc(-c2cccc(C(F)(F)F)c2)nc2cc(C(=O)NCCCc3nnc[nH]3)ccc12 [Compound I-215, 4-ethoxy-N-[3-(4H-1,2,4-triazol-3-yl)propyl]-2-[3-(trifluoromethyl)phenyl]quinoline-7-carboxamide]	93%	0.05 to 0.1 µM	1%
CCOc1cc(-c2cccnc2)nc2cc(C(=O)NCCCc3nnc[nH]3)ccc12 [Compound I-209, 4-ethoxy-2-(pyridin-3-yl)-N-[3-(4H-1,2,4-triazol-3-yl)propyl]quinoline-7-carboxamide]	92%	0.05 to 0.1 µM	1%
CCOc1cc(-c2ccc(C)nc2OC)nc2cc(C(=O)NCCCc3cnn[nH]3)ccc12 [Compound I-103, 4-ethoxy-2-(2-methoxy-6-methylpyridin-3-yl)-N-[3-(1H-1,2,3-triazol-5-yl)propyl]quinoline-7-carboxamide]	> 99%	0.01 to 0.05 µM	2%
CCOc1cc(-c2ccc(F)cc2)nc2cc(C(=O)NCCCc3nccs3)ccc12 [Compound I-44, 4-ethoxy-2-(4-fluorophenyl)-N-[3-(1,3-thiazol-2-yl)propyl]quinoline-7-carboxamide]	97%	< 0.01 µM	58%
CCOc1cc(-c2ccc(F)cc2)nc2cc(C(=O)NCCCc3c[nH]nc3C)ccc12 [Compound I-201, 4-ethoxy-2-(4-fluorophenyl)-N-[3-(3-methyl-1H-pyrazol-4-yl)propyl]quinoline-7-carboxamide]	98%	< 0.01 µM	3%
O=C(NCCCc1ncc[nH]1)c1ccc2c(-c3ccc(F)cc3)nc(-c3ccc(Cl)cc3)nc2c1 [Compound I-57, 2-(4-Chlorophenyl)-4-(4-fluorophenyl)-N-[3-(1H-imidazol-2-yl)propyl]quinazoline-7-carboxamide]	99%	< 0.01 µM	1%
CCOc1cc(-c2ccc(F)c(F)c2)nc2cc(C(=O)NCCCc3ncc[nH]3)ccc12 [Compound I-52, 2-(3,4-difluorophenyl)-4-ethoxy-N-[3-(1H-imidazol-2-yl)propyl]quinoline-7-carboxamide]	99%	< 0.01 µM	4%
CCOc1cc(-c2ccc(F)cc2)nc2cc(C(=O)NCC3CC3c3ncc[nH]3)ccc12 (single isomer, unassigned) [Compound I-50, 4-Ethoxy-2-(4-fluorophenyl)-N-{[trans-(1,2)-2-(1H-imidazol-2-yl)cyclopropyl]methyl}quinoline-7-carboxamide]	99%	< 0.01 µM	3%
Cc1cc(-c2cc(-c3ccc(F)cc3)c3ccc(C(=O)NCCCc4nnc[nH]4)cc3n2)ccn1 [Compound I-157, N-(3-(4H-1,2,4-triazol-3-yl)propyl)-4-(4-fluorophenyl)-2-(2-methylpyridin-4-yl)quinoline-7-carboxamide]	89%	0.05 to 0.1 µM	5%
CCOc1cc(-c2ccc(C)nc2OC)nc2cc(C(=O)NCCc3c[nH]nc3C)ccc12 [Compound I-92, 4-ethoxy-2-(2-methoxy-6-methylpyridin-3-yl)-N-[2-(3-methyl-1H-pyrazol-4-yl)ethyl]quinoline-7-carboxamide]	95%	0.01 to 0.05 µM	2%
CCOc1cc(-c2ccnc(OC)c2)nc2cc(C(=O)NCc3nc4cnccc4[nH]3)ccc12 [Compound I-194, 4-ethoxy-N-(1H-imidazo[4,5-c]pyridin-2-ylmethyl)-2-(2-methoxypyridin-4-yl)quinoline-7-carboxamide]	100%	< 0.01 µM	3%
O=C(NCCCc1ncc[nH]1)c1ccc2c(Cc3ccccc3)nc(-c3ccc(Cl)cc3)nc2c1 [Compound I-53, 4-benzyl-2-(4-chlorophenyl)-N-[3-(1H-imidazol-2-yl)propyl]quinazoline-7-carboxamide]	93%	0.01 to 0.05 µM	4%
CCOc1cc(-c2cc(Cl)ccc2F)nc2cc(C(=O)NCCCc3ncc[nH]3)ccc12 [Compound I-11, 2-(5-chloro-2-fluorophenyl)-4-ethoxy-N-[3-(1H-imidazol-2-yl)propyl]quinoline-7-carboxamide]	> 99%	< 0.01 µM	1%
CCCc1nc(-c2ccc(Cl)cc2)nc2cc(C(=O)NCc3nc4ccncc4[nH]3)ccc12 [Compound I-9, 2-(4-chlorophenyl)-N-(3H-imidazo[4,5-c]pyridin-2-ylmethyl)-4-propylquinazoline-7-carboxamide]	93%	< 0.01 µM	1%
CCOc1cc(-c2cc(OC)ncc2F)nc2cc(C(=O)NCc3nc4cnccc4[nH]3)ccc12 [Compound I-188, 4-ethoxy-2-(5-fluoro-2-methoxypyridin-4-yl)-N-(1H-imidazo[4,5-c]pyridin-2-ylmethyl)quinoline-7-carboxamide]	99%	< 0.01 µM	3%
CCOc1cc(OCC)c2ccc(C(=O)NCCCc3ncc[nH]3)cc2n1 [Compound I-61, N-(3-(1H-Imidazol-2-yl)propyl)-2,4-diethoxyquinoline-7-carboxamide]	99%	< 0.01 µM	2%
CCOc1cc(-c2cc(OC)ncc2F)nc2cc(C(=O)NCCCc3nnc[nH]3)ccc12 [Compound I-225, 4-ethoxy-2-(5-fluoro-2-methoxypyridin-4-yl)-N-[3-(4H-1,2,4-triazol-3-yl)propyl]quinoline-7-carboxamide]	97%	0.01 to 0.05 µM	2%
